According to PubChem BioAssay (NCI):
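In this assay, cells in 96-well plates receive the compound at five concentrations for 48 hours. Endpoints are linearly interpolated between the surrounding concentrations. The concentration for 50% growth inhibition is given as GI50. TGI marks complete inhibition of growth.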

Columns and labels:
Test in all cases: NCI anticancer screen, dose series, 48 h
786-0 renal = tested on: 786-0 renal
CAKI-1 renal = tested on: CAKI-1 renal
DLD-1 colon = tested on: DLD-1 colon
HOP-62 NSCLC = tested on: HOP-62 NSCLC
HS 578T breast = tested on: HS 578T breast
KM12 colon = tested on: KM12 colon
LXFL 529 NSCLC = tested on: LXFL 529 NSCLC
MALME-3M melanoma = tested on: MALME-3M melanoma
OVCAR-8 ovarian = tested on: OVCAR-8 ovarian
T-47D breast = tested on: T-47D breast

| Compound | GI50 (786-0 renal) [µM] | TGI (786-0 renal) [µM] | GI50 (CAKI-1 renal) [µM] | TGI (CAKI-1 renal) [µM] | GI50 (DLD-1 colon) [µM] | TGI (DLD-1 colon) [µM] | GI50 (HOP-62 NSCLC) [µM] | TGI (HOP-62 NSCLC) [µM] | GI50 (HS 578T breast) [µM] | TGI (HS 578T breast) [µM] | GI50 (KM12 colon) [µM] | TGI (KM12 colon) [µM] | GI50 (LXFL 529 NSCLC) [µM] | TGI (LXFL 529 NSCLC) [µM] | GI50 (MALME-3M melanoma) [µM] | TGI (MALME-3M melanoma) [µM] | GI50 (OVCAR-8 ovarian) [µM] | TGI (OVCAR-8 ovarian) [µM] | GI50 (T-47D breast) [µM] | TGI (T-47D breast) [µM] |
| --- | --- | --- | --- | --- | --- | --- | --- | --- | --- | --- | --- | --- | --- | --- | --- | --- | --- | --- | --- | --- |
| CC[CH2][Sn]([CH2]CC)([O]C(=O)c1cccnc1SC)[O][Sn]([CH2]CC)([CH2]CC)[O]C(=O)c1cccnc1SC | 0.313 | 0.675 | 0.266 | 0.801 | 0.219 | 0.998 | 2.32 | 5.31 | 1.5 | 6.36 | 1.5 | 4.43 | 0.0198 | 0.155 | 0.237 | 0.566 | 0.599 | 1.92 | 0.287 | 1.52 |
| CCc1ccc(/C=C\c2cc(OC)c(OC)c(OC)c2)cc1 | 0.0353 | 14 | 1.02 | > 100 | 0.0358 | 27.8 | 0.0295 | 18.3 |  | 0.106 |  |  | 0.0233 | 27.3 | 0.0447 | 37.4 |  | 0.581 |  |  |
| Brc1cccc(C=NC23CC4CC(CC(C4)C2)C3)c1 |  | > 100 |  | > 100 |  | > 100 |  | > 100 |  |  |  | > 100 |  | > 100 |  | > 100 |  | > 100 |  |  |
| [Cl-].[Dy+3].[O-]/N=C(\c1ccccc1)c1ccccn1.[O-]/N=C(\c1ccccc1)c1ccccn1.[O-]/N=C(\c1ccccc1)c1ccccn1 | 32.2 | 96.6 | 31 | > 100 | 35.9 | > 100 | 24.7 | > 100 |  |  | 55.3 | > 100 | 41.2 | > 100 | 34.4 | > 100 | 35.8 | > 100 |  |  |
| CC(C)(C)C1C=C(Sc2ccccc2)C(=O)O1 (stereo unspecified) |  | > 100 |  | > 100 |  | > 100 |  | > 100 |  |  |  | > 100 |  | > 100 |  | > 100 |  | > 100 |  |  |
